US20030100772A1, “Oxygen-containing heterocyclic compounds” (priority 2000, published 2003)

Assays:
[1] = target: T1, recombinant human PDE IV enzyme (HSPDE4A4B) (Homo sapiens, UniProt P27815); experiment: Inhibition test on recombinant human PDE IV enzyme; format: biochemical; conditions: [3H]cAMP 1 μmol/L substrate, read-out: enzyme inhibitory activity
T1 construct: made in house; host or cells: Sf9 insect cells
Method: Inhibition Test on Recombinant Human PDE IV Enzyme
Human phosphodiesterase cDNA (HSPDE4A4B) was isolated from HL-60 cells. The expected amino acid sequence is the same as that (HSPDE4A5) reported by G. Bolger et al. [Mol. Cell Biol. 13, p. 6558 (1993)]. This recombinant protein was expressed in Sf9 insect cells. The PDE activity was determined by the following two step process according to the method by R. L. Kincaid and V. C. Manganiello [Method. Enzymol., 159, pp. 457-470 (1988)]. Using [^3H]cAMP (final concentration: 1 μmol/L) as a substrate, the reaction was conducted in a standard mixture containing N,N-bis(2-hydroxyethyl)-2-aminoethanesulfonic acid (50 mmol/L, pH 7.2), MgCl2 (1 mmol/L) and soybean trypsin inhibitor (0.1 mg/mL). The reaction was started by addition of the enzyme, and the incubation was conducted at 30° C. for 10 to 30 minutes. The reaction was terminated with hydrochloric acid, and the formed 5′-AMP was completely decomposed with […]. After chromatography with DEAE-Sephadex A-25, the eluted [^3H]-adenosine was counted by a scintillation counter. The test compounds were added after dissolved in DMSO (concentration: 1.7%).

T1 sequence (P27815 whole entry): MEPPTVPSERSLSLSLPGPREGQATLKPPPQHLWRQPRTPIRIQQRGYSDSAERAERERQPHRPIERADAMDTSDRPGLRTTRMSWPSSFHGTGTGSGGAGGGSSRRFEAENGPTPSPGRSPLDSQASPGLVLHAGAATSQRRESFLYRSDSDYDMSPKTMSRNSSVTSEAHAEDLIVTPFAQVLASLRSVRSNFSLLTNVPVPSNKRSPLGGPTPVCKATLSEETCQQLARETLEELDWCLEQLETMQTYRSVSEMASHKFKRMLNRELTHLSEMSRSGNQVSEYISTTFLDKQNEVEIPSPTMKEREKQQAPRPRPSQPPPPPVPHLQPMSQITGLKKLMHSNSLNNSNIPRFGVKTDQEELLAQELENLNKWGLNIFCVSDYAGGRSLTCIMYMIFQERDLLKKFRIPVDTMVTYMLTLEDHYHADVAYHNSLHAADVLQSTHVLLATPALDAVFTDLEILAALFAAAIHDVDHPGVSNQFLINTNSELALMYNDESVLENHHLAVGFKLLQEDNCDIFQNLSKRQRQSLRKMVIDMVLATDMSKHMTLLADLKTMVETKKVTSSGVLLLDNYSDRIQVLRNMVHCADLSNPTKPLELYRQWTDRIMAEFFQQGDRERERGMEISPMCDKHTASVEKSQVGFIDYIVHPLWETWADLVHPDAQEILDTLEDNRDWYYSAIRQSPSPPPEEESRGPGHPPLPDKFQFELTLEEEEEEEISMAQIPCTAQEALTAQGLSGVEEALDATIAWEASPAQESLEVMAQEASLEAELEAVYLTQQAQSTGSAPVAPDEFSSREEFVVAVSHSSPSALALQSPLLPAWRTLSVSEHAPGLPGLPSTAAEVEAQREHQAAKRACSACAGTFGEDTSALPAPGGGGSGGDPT

Compound | melting point [°C] | inhibition at 10 µM ([1]; drug concentration of 10 μmol/L) [%] | inhibition at 1 µM ([1]; concentration of 1 μmol/L) [%]
COc1ccc(C2(C3CCCCC3=O)CCC(C(=O)O)CC2)c2c1OCCO2 (single isomer, unassigned) [Compound 9a, 4-(Cyclohexanon-2-yl)-4-(8-methoxy-1,4-benzodioxan-5-yl)-cyclohexanecarboxylic Acid] | 243 to 244 | – | –
COc1ccc(C2(C3CCCCC3=O)CCC(C(=O)O)CC2)c2c1OCCO2 (single isomer, unassigned) [Compound 9b, 4-(Cyclohexanon-2-yl)-4-(8-methoxy-1,4-benzodioxan-5-yl)-cyclohexanecarboxylic Acid] | 222 to 223 | – | –
COc1ccc(C2(C3CCCC3=O)CCC(C(=O)O)CC2)c2c1OCCO2 (centres unmarked) [Compound 8, 4-(Cyclopentanon-2-yl)-4-(8-methoxy-1,4-benzodioxan-5-yl)-cyclohexanecarboxylic Acid] | 241 to 243 | ≥ 30 | –
CCOC(=O)C=CC1(c2ccc(OC)c3c2OCCO3)CCC(=O)CC1 [Compound 13, Ethyl 3-[1-(8-methoxy-1,4-benzodioxan-5-yl)-4-oxocyclohexyl]acrylate] | – | – | ≥ 99
